In patent US20230374034A1, “NOVEL BICYCLIC COMPOUNDS” (PRISM BIOLAB CO., LTD., priority 2020, published 2023) one finds inhibition data, which are given here for seven compounds.

This test deals with NICD (Notch intracellular domain) CSL-bla reporter in HeLa cells. The experiment in a line: Notch assay (CellSensor T-REx NICD CSL-bla HeLa beta-lactamase reporter; Method 1 / Method 2). It is filed as cell-based. To be noted: Homo sapiens, 10 μM compound, Method 2 (40 nL of 1000× compound added to plate with Echo), read-out: inhibiton (%) at 10 μM. An outline of the steps: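 HeLa cells carrying doxycycline-inducible NICD and a CSL-driven beta-lactamase reporter, 10^3 cells/well, were treated with compound plus doxycycline for 16-20 h at 37 °C. CCF4-AM substrate was loaded for 4 h at room temperature; background-subtracted blue (460 nm)/green (530 nm) emission ratio taken per well.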
Consider `CC(C)C[C@H]1ON(C(=O)OCc2ccccc2)C2CN(C3CCN(C)CC3)C(=O)[C@H](CCCCNC3CN(C(=O)OC(C)(C)C)C3)N2C1=O` (stereo partly drawn) [Compound I-146, benzyl (3R,6S)-6-(4-((1-(tert-butoxycarbonyl)azetidin-3-yl)amino)butyl)-3-isobutyl-8-(1-methylpiperidin-4-yl)-4,7-dioxohexahydropyrazino[2,1-c][1,2,4]oxadiazine-1(6H)-carboxylate], for which the inhibition at 10 µM is 105%. With `CC(C)C[C@H]1ON(CCCc2ccccc2)C2CN(C3CCNCC3)C(=O)[C@H](CC(C)C)N2C1=O` (stereo partly drawn) [Compound I-147, (3R,6S)-3,6-diisobutyl-1-(3-phenylpropyl)-8-(piperidin-4-yl)tetrahydropyrazino[2,1-c][1,2,4]oxadiazine-4,7(3H,6H)-dione], the inhibition at 10 µM was 50.2%. On to `CC(C)C[C@H]1ON(CCCC2CCN(C(=O)c3ccc(C(=O)c4ccccc4)cc3)CC2)C2CN(C3CCN(C)CC3)C(=O)[C@H](CC(C)C)N2C1=O` (stereo partly drawn) [Compound I-148, (3R,6S)-1-(3-(1-(4-benzoylbenzoyl)piperidin-4-yl)propyl)-3,6-diisobutyl-8-(1-methylpiperidin-4-yl)tetrahydropyrazino[2,1-c][1,2,4]oxadiazine-4,7(3H,6H)-dione], for which the inhibition at 10 µM is 76.6%.

In the case of `Cc1ccc(S(=O)(=O)N2CCC(CCCN3O[C@H](CC(C)C)C(=O)N4C3CN(C3CCN(C)CC3)C(=O)[C@@H]4CC(C)C)CC2)cc1` (stereo partly drawn) [Compound I-149, (3R,6S)-3,6-diisobutyl-8-(1-methylpiperidin-4-yl)-1-(3-(1-tosylpiperidin-4-yl)propyl)tetrahydropyrazino [2,1-c][1,2,4]oxadiazine-4,7(3H,6H)-dione], the inhibition at 10 µM was found to be 114%.

On to `CC(C)C[C@H]1ON(CCCC2CCN(S(=O)(=O)c3cccnc3)CC2)C2CN(C3CCN(C)CC3)C(=O)[C@H](CC(C)C)N2C1=O` (stereo partly drawn) [Compound I-150, (3R,6S)-3,6-diisobutyl-8-(1-methylpiperidin-4-yl)-1-(3-(1-(pyridin-3-ylsulfonyl)piperidin-4-yl)propyl)tetrahydropyrazino [2,1-c][1,2,4]oxadiazine-4,7(3H,6H)-dione], for which the inhibition at 10 µM was 69.1%.

For `CC(C)C[C@H]1ON(CCCC2CCN(S(C)(=O)=O)CC2)C2CN(C3CCN(C)CC3)C(=O)[C@H](CC(C)C)N2C1=O` (stereo partly drawn) [Compound I-151, (3R,6S)-3,6-diisobutyl-8-(1-methylpiperidin-4-yl)-1-(3-(1-(methylsulfonyl)piperidin-4-yl)propyl) tetrahydropyrazino [2,1-c][1,2,4]oxadiazine-4,7(3H,6H)-dione], the inhibition at 10 µM came to 88%. Next, `CC(C)C[C@H]1ON(CCCC2CCN(S(=O)(=O)c3ccc(C#N)cc3)CC2)C2CN(C3CCN(C)CC3)C(=O)[C@H](CC(C)C)N2C1=O` (stereo partly drawn) [Compound I-152, 4-((4-(3-((3R,6S)-3,6-diisobutyl-8-(1-methylpiperidin-4-yl)-4,7-dioxohexahydro-pyrazino[2,1-c][1,2,4]oxadiazin-1(6H)-yl)propyl)piperidin-1-yl)sulfonyl)benzonitrile]: 93.5%.
